Measurements from ChEMBL document CHEMBL1155172, “Distribution of radioactivity in bone and related structures following administration of [14C]dalbavancin to New Zealand white rabbits” (Antimicrob Agents Chemother, 2007).

How the values were obtained:
[1] = Drug level in New Zealand white rabbit bone marrow assessed as [14C]dalbavancin level per gram of tissue at 20 mg/kg, iv after 120 hrs by liquid scintillation counting method; type: ADME, organism-based, Oryctolagus cuniculus; set-up: dose 20 mg/kg, route intravenous; conditions: in vivo
[2] = Drug level in New Zealand white rabbit epiphyseal plate assessed as [14C]dalbavancin level per gram of tissue at 20 mg/kg, iv after 336 hrs by autoradioluminography; type: ADME, organism-based, Oryctolagus cuniculus; set-up: dose 20 mg/kg, route intravenous; conditions: in vivo
[3] = Drug level in New Zealand white rabbit bone assessed as [14C]dalbavancin level per gram of tissue at 20 mg/kg, iv after 12 hrs by liquid scintillation counting method; type: ADME, organism-based, Oryctolagus cuniculus, Bone element; set-up: dose 20 mg/kg, route intravenous; conditions: in vivo
[4] = Drug level in New Zealand white rabbit nucleus pulposus assessed as [14C]dalbavancin level per gram of tissue at 20 mg/kg, iv after 336 hrs by liquid scintillation counting method; type: ADME, organism-based, Oryctolagus cuniculus; set-up: dose 20 mg/kg, route intravenous; conditions: in vivo
[5] = Drug level in New Zealand white rabbit synovial space assessed as [14C]dalbavancin level per gram of tissue at 20 mg/kg, iv after 120 hrs by autoradioluminography; type: ADME, organism-based, Oryctolagus cuniculus; set-up: dose 20 mg/kg, route intravenous; conditions: in vivo
[6] = Drug level in New Zealand white rabbit bone assessed as [14C]dalbavancin level per gram of tissue at 20 mg/kg, iv after 72 hrs by liquid scintillation counting method; type: ADME, organism-based, Oryctolagus cuniculus, Bone element; set-up: dose 20 mg/kg, route intravenous; conditions: in vivo
[7] = Drug level in New Zealand white rabbit ligament assessed as [14C]dalbavancin level per gram of tissue at 20 mg/kg, iv after 168 hrs by autoradioluminography; type: ADME, organism-based, Oryctolagus cuniculus; set-up: dose 20 mg/kg, route intravenous; conditions: in vivo
[8] = Drug level in New Zealand white rabbit synovial space assessed as [14C]dalbavancin level per gram of tissue at 20 mg/kg, iv after 336 hrs by autoradioluminography; type: ADME, organism-based, Oryctolagus cuniculus; set-up: dose 20 mg/kg, route intravenous; conditions: in vivo
[9] = Drug level in New Zealand white rabbit meniscus assessed as [14C]dalbavancin level per gram of tissue at 20 mg/kg, iv after 72 hrs by autoradioluminography; type: ADME, organism-based, Oryctolagus cuniculus; set-up: dose 20 mg/kg, route intravenous; conditions: in vivo
[10] = Drug level in New Zealand white rabbit skeletal muscle assessed as [14C]dalbavancin level per gram of tissue at 20 mg/kg, iv after 168 hrs by autoradioluminography; type: ADME, organism-based, Oryctolagus cuniculus; set-up: dose 20 mg/kg, route intravenous; conditions: in vivo
[11] = Drug level in New Zealand white rabbit meniscus assessed as [14C]dalbavancin level per gram of tissue at 20 mg/kg, iv after 24 hrs by autoradioluminography; type: ADME, organism-based, Oryctolagus cuniculus; set-up: dose 20 mg/kg, route intravenous; conditions: in vivo
[12] = Drug level in New Zealand white rabbit periostium assessed as [14C]dalbavancin level per gram of tissue at 20 mg/kg, iv after 24 hrs by autoradioluminography; type: ADME, organism-based, Oryctolagus cuniculus, Periosteum; set-up: dose 20 mg/kg, route intravenous; conditions: in vivo
[13] = Drug level in New Zealand white rabbit synovial space assessed as [14C]dalbavancin level per gram of tissue at 20 mg/kg, iv after 168 hrs by autoradioluminography; type: ADME, organism-based, Oryctolagus cuniculus; set-up: dose 20 mg/kg, route intravenous; conditions: in vivo
[14] = Drug level in New Zealand white rabbit periostium assessed as [14C]dalbavancin level per gram of tissue at 20 mg/kg, iv after 12 hrs by autoradioluminography; type: ADME, organism-based, Oryctolagus cuniculus, Periosteum; set-up: dose 20 mg/kg, route intravenous; conditions: in vivo
[15] = Drug level in New Zealand white rabbit bone marrow assessed as [14C]dalbavancin level per gram of tissue at 20 mg/kg, iv after 24 hrs by autoradioluminography; type: ADME, organism-based, Oryctolagus cuniculus; set-up: dose 20 mg/kg, route intravenous; conditions: in vivo
[16] = Drug level in New Zealand white rabbit bone marrow assessed as [14C]dalbavancin level per gram of tissue at 20 mg/kg, iv after 168 hrs by autoradioluminography; type: ADME, organism-based, Oryctolagus cuniculus; set-up: dose 20 mg/kg, route intravenous; conditions: in vivo
[17] = Drug level in New Zealand white rabbit ligament assessed as [14C]dalbavancin level per gram of tissue at 20 mg/kg, iv after 12 hrs by autoradioluminography; type: ADME, organism-based, Oryctolagus cuniculus; set-up: dose 20 mg/kg, route intravenous; conditions: in vivo
[18] = Drug level in New Zealand white rabbit bone marrow assessed as [14C]dalbavancin level per gram of tissue at 20 mg/kg, iv after 336 hrs by autoradioluminography; type: ADME, organism-based, Oryctolagus cuniculus; set-up: dose 20 mg/kg, route intravenous; conditions: in vivo
[19] = Drug level in New Zealand white rabbit cerebrospinal fluid assessed as [14C]dalbavancin level per gram of tissue at 20 mg/kg, iv after 24 hrs by liquid scintillation counting method; type: ADME, organism-based, Oryctolagus cuniculus; set-up: dose 20 mg/kg, route intravenous; conditions: in vivo
[20] = Drug level in New Zealand white rabbit nucleus pulposus assessed as [14C]dalbavancin level per gram of tissue at 20 mg/kg, iv after 120 hrs by liquid scintillation counting method; type: ADME, organism-based, Oryctolagus cuniculus; set-up: dose 20 mg/kg, route intravenous; conditions: in vivo
[21] = Drug level in New Zealand white rabbit nucleus pulposus assessed as [14C]dalbavancin level per gram of tissue at 20 mg/kg, iv after 168 hrs by liquid scintillation counting method; type: ADME, organism-based, Oryctolagus cuniculus; set-up: dose 20 mg/kg, route intravenous; conditions: in vivo
[22] = Drug level in New Zealand white rabbit articular cartilage assessed as [14C]dalbavancin level per gram of tissue at 20 mg/kg, iv after 72 hrs by autoradioluminography; type: ADME, organism-based, Oryctolagus cuniculus; set-up: dose 20 mg/kg, route intravenous; conditions: in vivo
Oryctolagus cuniculus [23] = assay: Plasma concentration in New Zealand white rabbit assessed as [14C]dalbavancin level per gram of tissue at 20 mg/kg, iv after 12 hrs by liquid scintillation counting method; type: ADME, organism-based; set-up: dose 20 mg/kg, route intravenous; conditions: in vivo
Streptococcus = assay: Antibacterial activity against Streptococcus; type: functional
[24] = Drug level in New Zealand white rabbit articular cartilage assessed as [14C]dalbavancin level per gram of tissue at 20 mg/kg, iv after 120 hrs by autoradioluminography; type: ADME, organism-based, Oryctolagus cuniculus; set-up: dose 20 mg/kg, route intravenous; conditions: in vivo
[25] = Drug level in New Zealand white rabbit epiphyseal plate assessed as [14C]dalbavancin level per gram of tissue at 20 mg/kg, iv after 24 hrs by autoradioluminography; type: ADME, organism-based, Oryctolagus cuniculus; set-up: dose 20 mg/kg, route intravenous; conditions: in vivo
[26] = Drug level in New Zealand white rabbit compact bone assessed as [14C]dalbavancin level per gram of tissue at 20 mg/kg, iv after 168 hrs by autoradioluminography; type: ADME, organism-based, Oryctolagus cuniculus, Bone element; set-up: dose 20 mg/kg, route intravenous; conditions: in vivo
Oryctolagus cuniculus [27] = assay: Plasma concentration in New Zealand white rabbit assessed as [14C]dalbavancin level per gram of tissue at 20 mg/kg, iv after 336 hrs by liquid scintillation counting method; type: ADME, organism-based; set-up: dose 20 mg/kg, route intravenous; conditions: in vivo
[28] = Drug level in New Zealand white rabbit periostium assessed as [14C]dalbavancin level per gram of tissue at 20 mg/kg, iv after 72 hrs by autoradioluminography; type: ADME, organism-based, Oryctolagus cuniculus, Periosteum; set-up: dose 20 mg/kg, route intravenous; conditions: in vivo
[29] = Drug level in New Zealand white rabbit synovial space assessed as [14C]dalbavancin level per gram of tissue at 20 mg/kg, iv after 24 hrs by autoradioluminography; type: ADME, organism-based, Oryctolagus cuniculus; set-up: dose 20 mg/kg, route intravenous; conditions: in vivo
[30] = Drug level in New Zealand white rabbit bone assessed as [14C]dalbavancin level per gram of tissue at 20 mg/kg, iv after 168 hrs by liquid scintillation counting method; type: ADME, organism-based, Oryctolagus cuniculus, Bone element; set-up: dose 20 mg/kg, route intravenous; conditions: in vivo
[31] = Drug level in New Zealand white rabbit bone assessed as [14C]dalbavancin level per gram of tissue at 20 mg/kg, iv after 336 hrs by liquid scintillation counting method; type: ADME, organism-based, Oryctolagus cuniculus, Bone element; set-up: dose 20 mg/kg, route intravenous; conditions: in vivo
Oryctolagus cuniculus [32] = assay: Plasma concentration in New Zealand white rabbit assessed as [14C]dalbavancin level per gram of tissue at 20 mg/kg, iv after 72 hrs by liquid scintillation counting method; type: ADME, organism-based; set-up: dose 20 mg/kg, route intravenous; conditions: in vivo
[33] = Drug level in New Zealand white rabbit synovial space assessed as [14C]dalbavancin level per gram of tissue at 20 mg/kg, iv after 72 hrs by autoradioluminography; type: ADME, organism-based, Oryctolagus cuniculus; set-up: dose 20 mg/kg, route intravenous; conditions: in vivo
Staphylococcus = assay: Antibacterial activity against Staphylococcus; type: functional
[34] = Drug level in New Zealand white rabbit articular cartilage assessed as [14C]dalbavancin level per gram of tissue at 20 mg/kg, iv after 12 hrs by autoradioluminography; type: ADME, organism-based, Oryctolagus cuniculus; set-up: dose 20 mg/kg, route intravenous; conditions: in vivo
[35] = Drug level in New Zealand white rabbit bone marrow assessed as [14C]dalbavancin level per gram of tissue at 20 mg/kg, iv after 72 hrs by autoradioluminography; type: ADME, organism-based, Oryctolagus cuniculus; set-up: dose 20 mg/kg, route intravenous; conditions: in vivo
[36] = Drug level in human urine assessed as hydroxydalbavancin level; type: ADME, tissue-based
[37] = Drug level in New Zealand white rabbit compact bone assessed as [14C]dalbavancin level per gram of tissue at 20 mg/kg, iv after 336 hrs by autoradioluminography; type: ADME, organism-based, Oryctolagus cuniculus, Bone element; set-up: dose 20 mg/kg, route intravenous; conditions: in vivo

With CN[C@H]1C(=O)N[C@@H]2Cc3ccc(cc3)Oc3cc4cc(c3O[C@@H]3O[C@H](C(=O)O)[C@@H](O)[C@H](O)[C@H]3NC(=O)CCCCCCCCC(C)C)Oc3ccc(cc3Cl)[C@@H](O)[C@@H]3NC(=O)[C@H](NC(=O)[C@@H]4NC(=O)[C@@H](NC2=O)c2cc(cc(O)c2Cl)Oc2cc1ccc2O)c1ccc(O)c(c1)-c1c(O[C@H]2O[C@H](CO)[C@@H](O)[C@H](O)[C@@H]2O)cc(O)cc1[C@@H](C(=O)NCCCN(C)C)NC3=O [DALBAVANCIN] the Drug uptake [1] was 9.52 µg/g, the Drug uptake [2] was 8.42 µg/g and the Drug uptake [3] was 7.04 µg. The Drug uptake [4] was 0.6 µg/g, the Drug uptake [5] was 2.66 µg/g and the Drug uptake [6] was 3.94 µg/g. The Drug uptake [7] was 2.67 µg, the Drug uptake [8] was 1.16 µg/g and the Drug uptake [9] was 8.04 µg. It also gave a Drug uptake [10] of 0.94 µg/g, a Drug uptake [11] of 12.4 µg/g and a Drug uptake [12] of 11.35 µg. The Drug uptake [13] was 2.66 µg/g, the Drug uptake [14] was 20.9 µg/g and the Drug uptake [15] was 32.1 µg/g. It also gave a Drug uptake [16] of 18.9 µg, a Drug uptake [17] of 22.1 µg/g and a Drug uptake [18] of 30.3 µg/g. For the same molecule, the Drug uptake [19] was 0.05 µg/g, the Drug uptake [20] was 0.75 µg/g and the Drug uptake [21] was 0.64 µg/g. The Drug uptake [22] was 8.04 µg/g, the Cp (Oryctolagus cuniculus [23]) was 46.88 µg and the MIC90 (Streptococcus) was at most 0.03 µg/mL. The Drug uptake [24] was 6.56 µg, the Drug uptake [25] was 18.7 µg/g and the Drug uptake [26] was 0.34 µg/g. For the same molecule, the Cp (Oryctolagus cuniculus [27]) was 0.94 µg, the Drug uptake [28] was 8.78 µg/g and the Drug uptake [29] was 4.25 µg. The Drug uptake [30] was 3.39 µg/g, the Drug uptake [31] was 1.96 µg/g and the Cp (Oryctolagus cuniculus [32]) was 4.5 µg. For the same molecule, the Drug uptake [33] was 1.49 µg/g, the MIC90 (Staphylococcus) was at most 0.06 µg/mL and the Drug uptake [34] was 25.1 µg/g. For the same molecule, the Drug uptake [35] was 37.79 µg, the Drug uptake [36] was 8 %ID and the Drug uptake [37] was 0.24 µg/g.
